Earlier results as cited in paper PMC11859340, “The Therapeutic Potential of Spirooxindoles in Cancer: A Focus on p53–MDM2 Modulation” (Pharmaceuticals, 2025).
Where two headings read alike, the source gives them in different places. Blank lines part the entries; values can stand above or below the molecule they belong to.

What was measured:
[1] = tested on: lung A549; design: method as in PMID 31047751; details: CCK-8
[2] = molecular target: MDM2; design: method as in PMID 31047751; details: fluorescence polarization assay; read-out: Ki, MDM2 inhibitory effect
[3] = tested on: breast MCF7; design: method as in PMID 31047751; details: CCK-8
[4] = tested on: colon HCT116; design: method as in PMID 31047751; details: CCK-8
[5] = design: method as in PMID 30508794; details: MTT; read-out: IC50 against PC3
[6] = tested on: HCT116 (colon); design: method as in PMID 30802707; details: MTT; read-out: IC50 against HCT116
[7] = tested on: HeLa (cervical); design: method as in PMID 37935912; details: SRB; read-out: IC50 against HeLa
[8] = tested on: MCF7 “breast”; design: method as in PMID 28027532; details: MTT; read-out: IC50 against MCF7
[9] = tested on: A549 (lung); design: method as in doi:10.1080/10426507.2020.1723590; details: MTT; read-out: IC50 against A549
[10] = tested on: HepG2 (liver); design: method as in PMID 30508794; details: MTT; read-out: IC50 against HepG2
[11] = tested on: PC-3 (prostate); design: method as in PMID 30802707; details: MTT; read-out: IC50 against PC-3
[12] = tested on: VERO-B (normal) cells; details: read-out: IC50 against VERO-B; MTT, normal cells
[13] = tested on: HCT116 (colon); design: method as in PMID 30508794; details: MTT; read-out: IC50 against HCT116
[14] = tested on: CT26; design: method as in PMID 28027532; details: MTT; read-out: IC50 against CT26
[15] = tested on: HCT116 “colon”; design: method as in PMID 28027532; details: MTT; read-out: IC50 against HCT116
[16] = tested on: HepG2 (liver); design: method as in PMID 30802707; details: MTT; read-out: IC50 against HepG2
[17] = tested on: A2870T “ovarian”; design: method as in PMID 28027532; details: MTT; read-out: IC50 against A2870T
[18] = tested on: H1975 “lung”; design: method as in PMID 28027532; details: MTT; read-out: IC50 against H1975
[19] = tested on: A549 “lung”; design: method as in PMID 28027532; details: MTT; read-out: IC50 against A549
[20] = tested on: A2870s; design: method as in PMID 28027532; details: MTT; read-out: IC50 against A2870s
[21] = tested on: HEK293T (embryonic kidney); design: method as in doi:10.1080/10426507.2020.1723590; details: MTT; read-out: IC50 against HEK293T
[22] = tested on: MCF7; design: method as in PMID 29210587; details: at 20 μM, MTT
[23] = tested on: ZR-75-1 (wild-type p53); design: method as in PMID 29210587; details: at 20 μM, MTT
[24] = tested on: BT-474 (mutated-type p53); design: method as in PMID 29210587; details: at 20 μM, MTT
[25] = tested on: MDM2; design: method as in PMID 29210587; details: at 20 μM, HTRF method
[26] = tested on: transplanted cancer (lung cancer); design: method as in PMID 32738990; details: 100, 200, 400 mg/kg

IC50 ([1]; read-out: IC50 against A549): 2100 nM | Ki [2]: 43.8 µM | IC50 ([3]; read-out: IC50 against MCF7): 6.8 µM | IC50 ([4]; read-out: IC50 against HCT116): 1700 nM
SMILES: O=C(C1=CCC(c2ccc(Br)cc2)C2(S1)C(=O)Nc1ccccc12)c1ccccc1 (centres unmarked) [150 (R^1 = H, R^2 = Ph, R^3 = 4-BrC6H4)]
% inhibition, A549 ([1]; at 10 μM): 75.1% | % inhibition, MCF7 ([3]; at 10 μM): 69.4% | % inhibition, HCT116 ([4]; at 10 μM): 91.9%

SMILES: N.N.[Cl][Pt][Cl] [cisplatin, reference compound]
IC50 [5]: 5 ± 0.56 µM | IC50 [6]: 12.6 ± 2 µM | IC50 [7]: 2000 ± 300 nM | IC50 [8]: 7.8 µM | IC50 [9]: 44.1 ± 3.9 µM | IC50 [10]: 5.5 ± 0.3 µM | IC50 [11]: 5 ± 0.5 µM | IC50 [12]: 5 ± 0.2 µM | IC50 [13]: 12.6 ± 0.5 µM | IC50 [14]: 23.7 µM | IC50 [15]: 17.4 µM | IC50 [16]: 5.5 ± 1 µM | IC50 [17]: 27.3 µM | IC50 [18]: 9.7 µM | IC50 [19]: 15.6 µM | IC50 [20]: 20.9 µM | IC50 [21]: 12.4 ± 3.9 µM

SMILES: C[C@H]1CN(C(=O)OC(C)(C)C)[C@@]2(C(=O)Nc3cc(Cl)ccc32)[C@@H]([N+](=O)[O-])[C@@H]1c1ccc(Cl)cc1
% inhibition, MCF7 [22]: 93.03% | % inhibition, ZR-75-1 [23]: 82.28% | % inhibition, BT-474 [24]: 50.00% | inhibitory activity against MDM2 [25]: 84.86

SMILES: CN1C(=O)C2(C(C#N)=C(N)Oc3cc4oc(-c5ccccc5)cc(=O)c4c(O)c32)c2cc(Br)ccc21 (centres unmarked) [compound 128]
transplanted cancer in mice [26]: Inhibition of transplanted cancer in mice
